Source: PubChem BioAssay AID330 (DTP/NCI, 2004)
Where “and” joins values, the source holds several entries; their conditions need not be identical. Identical values can stand only once. Toxic doses and inconclusive results are not listed. Numbered stars: 1 amine (or outer) side, 2 acyl side, 3 side chain; on linkers, the order of the positions; unused ones are H or OH. Bridge positions count the residues as written; N and C are the ends. Square brackets hold non-standard residues; d marks the D form. Peptide text beside a SMILES is read from it. * marks the point of attachment. X2 = CC(C)C(C)C(C(=O)[*:2])N(C)[*:1]; Picolinoyl(3-OH) = O=C(c1ncccc1O)*; NMePhg = CN[CH](C(=O)O)c1ccccc1; Hyp = O=C(O)[CH]1C[CH](O)CN1; Sar = CNCC(=O)O

Test system: P388 leukemia ip, CD2F1 mice, survival T/C
Test: NCI In Vivo Anticancer Drug Screen. Data for tumor model P388 Leukemia (intraperitoneal) in CD2F1 (CDF1) mice
Settings: endpoint: median survival time, higher = longer survival
How it was run: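 Mice carrying the transplanted tumor received test compound or vehicle. Survival was recorded in each group, and the value is the treated-group measurement divided by that of the vehicle-treated control group.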

[1] = dose: 50.0 mg/kg/injection, schedule: Q01DX009 (ip), vehicle: Klucel (hydroxypropylcellulose) (HPC)
[2] = dose: 100.0 mg/kg/injection, schedule: Q01DX009 (ip), vehicle: Klucel (hydroxypropylcellulose) (HPC)
[3] = dose: 200.0 mg/kg/injection, schedule: Q01DX009 (ip), vehicle: Klucel (hydroxypropylcellulose) (HPC)
[4] = dose: 12.5 mg/kg/injection, schedule: Q01DX009 (ip), vehicle: saline with Tween-80
[5] = dose: 25.0 mg/kg/injection, schedule: Q01DX009 (ip), vehicle: saline with Tween-80
[6] = dose: 50.0 mg/kg/injection, schedule: Q01DX009 (ip), vehicle: saline with Tween-80
[7] = dose: 50.0 mg/kg/injection, schedule: Q01DX005 (ip), vehicle: saline with Tween-80
[8] = dose: 100.0 mg/kg/injection, schedule: Q01DX005 (ip), vehicle: saline with Tween-80
[9] = dose: 100.0 mg/kg/injection, schedule: Q04DX003 (ip), vehicle: saline with Tween-80
[10] = dose: 200.0 mg/kg/injection, schedule: Q04DX003 (ip), vehicle: saline with Tween-80
[11] = dose: 50.0 mg/kg/injection, schedule: Q04DX003 (ip), vehicle: saline with Tween-80
[12] = dose: 50.0 mg/kg/injection, schedule: Q01DX009 (ip), vehicle: saline
[13] = dose: 100.0 mg/kg/injection, schedule: Q01DX009 (ip), vehicle: saline
[14] = dose: 15.0 mg/kg/injection, schedule: Q01DX005 (ip), vehicle: saline with Tween-80
[15] = dose: 30.0 mg/kg/injection, schedule: Q01DX005 (ip), vehicle: saline with Tween-80
[16] = dose: 60.0 mg/kg/injection, schedule: Q01DX005 (ip), vehicle: saline with Tween-80
[17] = dose: 120.0 mg/kg/injection, schedule: Q01DX005 (ip), vehicle: saline with Tween-80
[18] = dose: 240.0 mg/kg/injection, schedule: Q01DX005 (ip), vehicle: saline with Tween-80
[19] = dose: 100.0 mg/kg/injection, schedule: Q01DX009 (ip), vehicle: saline with Tween-80
[20] = dose: 60.0 mg/kg/injection, schedule: Q01DX005 (ip), vehicle: Klucel (hydroxypropylcellulose) (HPC)
[21] = dose: 120.0 mg/kg/injection, schedule: Q01DX005 (ip), vehicle: Klucel (hydroxypropylcellulose) (HPC)
[22] = dose: 200.0 mg/kg/injection, schedule: Q01DX005 (ip), vehicle: saline with Tween-80

With `CC(C)CC1NC(=O)C(NC(=O)c2ncccc2O)C(C)OC(=O)C(c2ccccc2)N(C)C(=O)C(C)NC(=O)C(C(C)C(C)C)N(C)C(=O)CN(C)C(=O)C2CC(O)CN2C1=O` (centres undefined) ({Picolinoyl(3-OH)}-TL[Hyp][Sar][X2]A[NMePhg]; ester 1-C; configuration not given here) the T/C (dose: 12.5 mg/kg/injection, schedule: Q01DX009 (ip), vehicle: Klucel (hydroxypropylcellulose) (HPC)) was 95 % of control, the T/C (dose: 25.0 mg/kg/injection, schedule: Q01DX009 (ip), vehicle: Klucel (hydroxypropylcellulose) (HPC)) was 94 % of control and the T/C [1] was 93 % of control. The T/C [2] was 95 % of control and 97 % of control and the T/C [3] was 98 % of control and 119 % of control.

With `CC12Cc3cn[nH]c3CC1CCC1C2CCC2(C)C1CCC2(C)O` (centres undefined) the T/C (dose: 100.0 mg/kg/injection, schedule: Q04DX002 (ip), vehicle: saline) was 98 % of control, the T/C (dose: 200.0 mg/kg/injection, schedule: Q04DX002 (ip), vehicle: saline) was 100 % of control and the T/C (dose: 400.0 mg/kg/injection, schedule: Q04DX002 (ip), vehicle: saline) was 97 % of control.

For `CCN(CC)c1cc(=O)nc2ccccn12`, the T/C (dose: 60.0 mg/kg/injection, schedule: Q01DX005 (ip), vehicle: saline) was 100 % of control, the T/C (dose: 120.0 mg/kg/injection, schedule: Q01DX005 (ip), vehicle: saline) was 99 % of control and the T/C (dose: 240.0 mg/kg/injection, schedule: Q01DX005 (ip), vehicle: saline) was 106 % of control.

For `OC(CC1CCCCN1)c1cc2c(Cl)cc(Cl)cc2c2cc(C(F)(F)F)ccc12` (centres undefined), the T/C [4] was 95 % of control, the T/C [5] was 104 % of control and the T/C [6] was 101 % of control.

`O=c1c2ccccc2nnn1OCc1ccccc1` was tested, and the T/C (dose: 12.5 mg/kg/injection, schedule: Q01DX009 (ip), vehicle: distilled water + Tween-80) was 100 % of control, the T/C (dose: 25.0 mg/kg/injection, schedule: Q01DX009 (ip), vehicle: distilled water + Tween-80) was 103 % of control and the T/C (dose: 50.0 mg/kg/injection, schedule: Q01DX009 (ip), vehicle: distilled water + Tween-80) was 97 % of control. The T/C (dose: 100.0 mg/kg/injection, schedule: Q01DX009 (ip), vehicle: distilled water + Tween-80) was 101 % of control and the T/C (dose: 200.0 mg/kg/injection, schedule: Q01DX009 (ip), vehicle: distilled water + Tween-80) was 103 % of control.

In the case of `Cc1cc(NC(=S)SCc2ccc(Cl)cc2)ccc1Br`, the T/C [4] is reported as 124 % of control, the T/C [5] is reported as 119 % of control and the T/C [1] is reported as 114 % of control and 124 % of control. The T/C [6] was 124 % of control, the T/C (dose: 50.0 mg/kg/injection, schedule: Q01DX009 (ip), vehicle: suspension in saline) was 108 % of control and the T/C [2] was 118 % of control and 120 % of control. The T/C (dose: 100.0 mg/kg/injection, schedule: Q01DX009 (ip), vehicle: suspension in saline) was 101 % of control, the T/C [3] was 123 % of control and the T/C (dose: 200.0 mg/kg/injection, schedule: Q01DX009 (ip), vehicle: suspension in saline) was 113 % of control.

For `Cc1nnsc1-c1nc2ccccc2[nH]1`, the T/C (dose: 50.0 mg/kg/injection, schedule: Q01DX005 (ip), vehicle: Klucel (hydroxypropylcellulose) (HPC)) was 95 % of control, the T/C (dose: 100.0 mg/kg/injection, schedule: Q01DX005 (ip), vehicle: Klucel (hydroxypropylcellulose) (HPC)) was 102 % of control and the T/C (dose: 200.0 mg/kg/injection, schedule: Q01DX005 (ip), vehicle: Klucel (hydroxypropylcellulose) (HPC)) was 104 % of control.

With `Cn1cccc1/C=N/N1CC(=O)N(c2cccc(Cl)c2)CC1=O` the T/C [7] was 100 % of control and the T/C [8] was 97 % of control.

In the case of `CN1CCC(=C2c3ccccc3CC(O)c3sccc32)CC1` (centres undefined), the T/C [9] is reported as 94 % of control and the T/C [10] is reported as 98 % of control.

`CN1CCc2cc3c(cc2C(=O)Cc2ccc4c(c2C1)OCO4)OCO3` was tested, and the T/C (dose: 25.0 mg/kg/injection, schedule: Q04DX003 (ip), vehicle: saline with Tween-80) was 95 % of control, the T/C [11] was 90 % of control and the T/C [9] was 90 % of control.

For `O=C1C=C[C@@H](COC(c2ccccc2)(c2ccccc2)c2ccccc2)O1`, the T/C (dose: 100.0 mg/kg/injection, schedule: Q04DX002 (ip), vehicle: saline with Tween-80) was 92 % of control, the T/C (dose: 200.0 mg/kg/injection, schedule: Q04DX002 (ip), vehicle: saline with Tween-80) was 86 % of control and the T/C (dose: 400.0 mg/kg/injection, schedule: Q04DX002 (ip), vehicle: saline with Tween-80) was 89 % of control.

With `[Cl][Ge]([Cl])([Cl])[c]1ccccc1` the T/C [12] was 100 % of control and the T/C [13] was 100 % of control.

`O=[N+]1C=Cc2ccccc2C1=C1c2ccccc2C=CN1[O-]` was tested, and the T/C (dose: 25.0 mg/kg/injection, schedule: Q01DX005 (ip), vehicle: saline with Tween-80) was 101 % of control, the T/C [7] was 97 % of control and the T/C [8] was 103 % of control.

With `CN(Cc1cnc2nc(N)nc(N)c2c1)c1ccc(C(=O)NC(CCC(=O)O)C(=O)O)cc1` (centres undefined) the T/C (dose: 0.25 mg/kg/injection, schedule: Q01DX005 (ip), vehicle: other) was 123 % of control, the T/C (dose: 1.0 mg/kg/injection, schedule: Q01DX005 (ip), vehicle: other) was 154 % of control and the T/C (dose: 2.0 mg/kg/injection, schedule: Q01DX005 (ip), vehicle: other) was 150 % of control and 170 % of control. For the same molecule, the T/C (dose: 4.0 mg/kg/injection, schedule: Q01DX005 (ip), vehicle: other) was 166 % of control and 186 % of control and 197 % of control and the T/C (dose: 6.0 mg/kg/injection, schedule: Q01DX005 (ip), vehicle: other) was 197 % of control.

In the case of `N#C/C(=C\C(Cl)=C/c1ccccc1)C(N)=S`, the T/C [12] is reported as 103 % of control and the T/C [13] is reported as 100 % of control.

With `CCCn1c(C)nc2cc(C(F)(F)F)cc([N+](=O)[O-])c21` the T/C [14] was 94 % of control, the T/C [15] was 99 % of control and the T/C [16] was 101 % of control and 97 % of control. The T/C [17] was 98 % of control and the T/C [18] was 103 % of control.

`CC(=O)Oc1c(N)c(C)cc(C)c1F` was tested, and the T/C (dose: 1.56 mg/kg/injection, schedule: Q01DX009 (ip), vehicle: saline with Tween-80) was 101 % of control, the T/C (dose: 3.12 mg/kg/injection, schedule: Q01DX009 (ip), vehicle: saline with Tween-80) was 93 % of control and the T/C (dose: 6.25 mg/kg/injection, schedule: Q01DX009 (ip), vehicle: saline with Tween-80) was 100 % of control. For the same molecule, the T/C [4] was 96 % of control.

With `Cc1c(-c2ccccc2)ccnc1/C=N/NC(=S)NCCc1ccccc1` the T/C [19] was 101 % of control and 95 % of control.

`Cc1cc(C)nc(CC(O)c2ccc(C=O)cc2)c1` (centres undefined) was tested, and the T/C [16] was 100 % of control, the T/C [17] was 94 % of control and the T/C [18] was 94 % of control.

In the case of `CCOc1nc(=O)[nH]c2c1CCCC2`, the T/C [20] is reported as 98 % of control and the T/C [21] is reported as 98 % of control.

In the case of `CCOC(=O)C(=CNNCCC#N)C(=O)OCC`, the T/C [6] is reported as 90 % of control, the T/C [19] is reported as 90 % of control and the T/C (dose: 200.0 mg/kg/injection, schedule: Q01DX009 (ip), vehicle: saline with Tween-80) is reported as 95 % of control.

`OC1COc2ccccc2OCCOCCOc2ccccc2OC1` was tested, and the T/C [14] was 100 % of control, the T/C [15] was 94 % of control and the T/C [16] was 95 % of control and 96 % of control.

With `O=C(O)Cc1ccc(C2CCCCC2)cc1` the T/C (dose: 100.0 mg/kg/injection, schedule: Q04DX003 (ip), vehicle: Klucel (hydroxypropylcellulose) (HPC)) was 90 % of control, the T/C (dose: 200.0 mg/kg/injection, schedule: Q04DX003 (ip), vehicle: Klucel (hydroxypropylcellulose) (HPC)) was 100 % of control and the T/C (dose: 400.0 mg/kg/injection, schedule: Q04DX003 (ip), vehicle: Klucel (hydroxypropylcellulose) (HPC)) was 100 % of control.

For `COC(=O)Nc1cc2c(cc1[N+](=O)[O-])OCCOCCOCCOCCO2`, the T/C [7] was 100 % of control, the T/C [8] was 98 % of control and the T/C [22] was 101 % of control.

With `CC1N(C)c2cc([N+](=O)[O-])ccc2C1(C)C` (centres undefined) the T/C [7] was 95 % of control, the T/C [8] was 100 % of control and the T/C [22] was 87 % of control.

In the case of `COC(=O)c1ccc(O)c([N+](=O)[O-])c1`, the T/C [11] is reported as 100 % of control, the T/C [9] is reported as 109 % of control and the T/C [10] is reported as 100 % of control.

`Cc1cc(=O)n(-c2ccc(F)cc2)[nH]1` was tested, and the T/C [20] was 89 % of control, the T/C [21] was 92 % of control and the T/C (dose: 240.0 mg/kg/injection, schedule: Q01DX005 (ip), vehicle: Klucel (hydroxypropylcellulose) (HPC)) was 90 % of control.
